22 compounds from patent US12258354B2, “AhR modulators” (IDEAYA BIOSCIENCES, INC., priority 2018, dated 2025) can be followed below.

In this test the target is T1, hAhR (Homo sapiens, UniProt P35869).
T1 construct: Stably integrated DRE-luciferase cell lines were generated by transducing the both cell lines with Cignal XRE luciferase reporter; endogenous in cells; host or cells: HEPG2 DRE-Luc cells (only the XRE luciferase reporter was transduced)
T1 sequence (P35869 11-848): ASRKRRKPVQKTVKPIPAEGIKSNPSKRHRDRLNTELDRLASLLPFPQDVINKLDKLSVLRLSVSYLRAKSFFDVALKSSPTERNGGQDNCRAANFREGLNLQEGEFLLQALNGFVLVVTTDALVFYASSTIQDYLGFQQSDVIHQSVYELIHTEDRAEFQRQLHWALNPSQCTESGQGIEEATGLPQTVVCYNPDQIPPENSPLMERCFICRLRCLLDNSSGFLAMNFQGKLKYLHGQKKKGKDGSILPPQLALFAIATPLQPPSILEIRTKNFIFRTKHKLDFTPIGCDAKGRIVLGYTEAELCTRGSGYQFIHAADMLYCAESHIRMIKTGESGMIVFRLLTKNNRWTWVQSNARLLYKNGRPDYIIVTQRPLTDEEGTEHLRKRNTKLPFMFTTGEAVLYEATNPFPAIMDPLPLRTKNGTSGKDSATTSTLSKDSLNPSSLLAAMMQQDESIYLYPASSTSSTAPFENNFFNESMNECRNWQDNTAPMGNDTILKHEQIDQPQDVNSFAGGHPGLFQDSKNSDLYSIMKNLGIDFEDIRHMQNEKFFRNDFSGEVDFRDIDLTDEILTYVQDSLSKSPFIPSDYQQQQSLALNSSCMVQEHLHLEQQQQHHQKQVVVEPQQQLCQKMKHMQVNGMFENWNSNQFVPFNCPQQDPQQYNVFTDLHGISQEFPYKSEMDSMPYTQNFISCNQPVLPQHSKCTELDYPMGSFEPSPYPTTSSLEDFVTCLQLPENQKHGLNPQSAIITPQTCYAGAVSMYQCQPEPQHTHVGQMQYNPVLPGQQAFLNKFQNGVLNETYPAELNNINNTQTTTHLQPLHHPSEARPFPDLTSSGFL
The test can be described thus: DRE-luciferase transcriptional reporter assay in HEPG2 DRE-Luc cells, TCDD-induced (antagonist mode). The settings on record: relative IC50, 3 nM TCDD, 24-hour incubation, firefly luciferase readout. It is filed as cell-based. As for the experimental part:
HEPG2 and HEPA1C1C7 cells were maintained in MEM and αMEM without nucleosides supplemented with 10% heat inactivated FBS respectively. Stably integrated DRE-luciferase cell lines were generated by transducing the both cell lines with Cignal XRE luciferase reporter (Qiagen) lentiviral particles according to the manufacturer protocol. For both cell lines stably integrated reporter cell lines were selected for the presence of 2 μg/mL puromycin. Following selection of stably integrated cell line pools, clonal cell lines were isolated by limiting dilution in 96-well plates. Transcriptional assays were performed by seeding 100 μL of cells at a density of 250,000 or 100,000 cells/mL, for HEPG2 and HEPA1C1C7 DRE-Luc cells respectively, into 96-well cell culture plates in OptiMEM supplemented with 0.5% heat inactivated FBS and allowed to attach overnight. For modulator assays, the compounds were added in a semi-log dose response using a D300e Digital Dispenser (Tecan) followed normalization with vehicle (DMSO). Immediately following compound addition 10 μL of 2,3,7,8-Tetrachlorodibenzo-p-dioxin (TCDD) was added to the cells to a final concentration of 3 nM or 0.3 nM for the HEPG2 and HEPA1C1C7 DRE-Luc cells respectively. Following 24-hour incubation, the medium was removed and the cells were lysed in 25 μL of Reporter Lysis Buffer (Promega). Firefly luciferase activity was measured immediately following the addition of 50 μL Luciferase Assay Reagent (Promega). The percent maximal activity for each point was determined using the following equation: (RLUsample−RLUvehicle−TCDD)/(RLUvehicle+TCDD RLUvehicle−TCDD)*100. The relative IC50, defined as the compound concentration required to reduce the TCDD induced response between the top and bottom plateau of each individual dose response curve by half, for each compound was determined using Prism 7 (GraphPad Software).
In general terms: In a reporter assay the amount or activity of a reporter protein is the signal.

The term IC50 denotes the concentration that gives 50% inhibition.

Take `Cc1cc(N2CCn3ncc(C)c3C2=O)c(F)cc1-c1ncc2nc(C(F)(F)F)ccc2n1` [compound 021, 5-(2-fluoro-5-methyl-4-(6-(trifluoromethyl)pyrido[3,2-d]pyrimidin-2-yl)phenyl)-3-methyl-6,7-dihydropyrazolo[1,5-a]pyrazin-4 (5H)-one]: the IC50 is under 200 nM.

Turning to `Cc1cc(N2CCn3ncc(C)c3C2=O)c(F)cc1-c1ccc2nc(C(F)(F)F)cc(C)c2n1` [compound 022, 5-(2-fluoro-5-methyl-4-(8-methyl-6-(trifluoromethyl)-1,5-naphthyridin-2-yl)phenyl)-3-methyl-6,7-dihydropyrazolo[1,5-a]pyrazin-4 (5H)-one], the IC50 is under 200 nM.

The compound `Cc1cc(N2CCn3ncc(C)c3C2=O)c(C)cc1-c1ccc2cc(C(F)(F)F)ccc2n1` [compound 023, 5-(2,5-dimethyl-4-(6-(trifluoromethyl)quinolin-2-yl)phenyl)-3-methyl-6,7-dihydropyrazolo[1,5-a]pyrazin-4 (5H)-one] came in with an IC50 of 1000 to 10000 nM.

With `Cc1cc(N2CCn3ncc(C)c3C2=O)c(F)cc1-c1ccc2cc(C(F)(F)F)ccc2n1` [compound 024, 5-(2-fluoro-5-methyl-4-(6-(trifluoromethyl)quinolin-2-yl)phenyl)-3-methyl-6,7-dihydropyrazolo[1,5-a]pyrazin-4 (5H)-one], the IC50 is under 200 nM.

`Cc1cc(N2CCn3ncc(C)c3C2=O)c(F)cc1-c1ncc2cc(C(F)(F)F)ccc2n1` [compound 025, 5-(2-fluoro-5-methyl-4-(6-(trifluoromethyl)quinazolin-2-yl)phenyl)-3-methyl-6,7-dihydropyrazolo[1,5-a]pyrazin-4 (5H)-one]: the IC50 was under 200 nM.

With `Cc1cc(N2CCn3ncc(C)c3C2=O)c(F)cc1-c1ncc2cc(C(F)(F)F)cc(C)c2n1` [compound 026, 5-(2-fluoro-5-methyl-4-(8-methyl-6-(trifluoromethyl)quinazolin-2-yl)phenyl)-3-methyl-6,7-dihydropyrazolo[1,5-a]pyrazin-4 (5H)-one], the IC50 was under 200 nM.

On to `Cc1cc(-c2ccc3nc(C(F)(F)F)ccc3n2)ccc1N1CCc2cnn(C)c2C1=O` [compound 027, 1-methyl-6-(2-methyl-4-(6-(trifluoromethyl)-1,5-naphthyridin-2-yl)phenyl)-1,4,5,6-tetrahydro-7H-pyrazolo[3,4-c]pyridin-7-one], for which the IC50 is under 200 nM.

In turn, `Cc1cc(-c2ccc3nc(C(F)(F)F)cc(C)c3n2)ccc1N1CCc2cnn(C)c2C1=O` [compound 028, 1-methyl-6-(2-methyl-4-(8-methyl-6-(trifluoromethyl)-1,5-naphthyridin-2-yl)phenyl)-1,4,5,6-tetrahydro-7H-pyrazolo[3,4-c]pyridin-7-one] had an IC50 of under 200 nM.

Take `Cc1cc(-c2ncc3cc(C(F)(F)F)ccc3n2)ccc1N1CCOc2cnn(C)c2C1=O` [compound 029, 1-methyl-7-(2-methyl-4-(6-(trifluoromethyl)quinazolin-2-yl)phenyl)-6,7-dihydro-1H-pyrazolo[3,4-f][1,4]oxazepin-8 (5H)-one]: the 50% inhibitory concentration (IC50) is under 200 nM.

`Cc1cc(-c2ccc3nc(C(F)(F)F)ccc3n2)ccc1N1CCOc2cnn(C)c2C1=O` [compound 030, 1-methyl-7-(2-methyl-4-(6-(trifluoromethyl)-1,5-naphthyridin-2-yl)phenyl)-6,7-dihydro-1H-pyrazolo[3,4-f][1,4]oxazepin-8 (5H)-one]: the IC50 is under 200 nM.

Consider `Cc1cc(-c2ccc3nc(C(F)(F)F)cc(C)c3n2)ccc1N1CCOc2cnn(C)c2C1=O` [compound 031, 1-methyl-7-(2-methyl-4-(8-methyl-6-(trifluoromethyl)-1,5-naphthyridin-2-yl)phenyl)-6,7-dihydro-1H-pyrazolo[3,4-f][1,4]oxazepin-8 (5H)-one], for which the IC50 was under 200 nM.

In turn, `Cc1cc(N2CCOc3cnn(C)c3C2=O)c(C)cc1-c1ccc2nc(C(F)(F)F)ccc2n1` [compound 032, 7-(2,5-dimethyl-4-(6-(trifluoromethyl)-1,5-naphthyridin-2-yl)phenyl)-1-methyl-6,7-dihydro-1H-pyrazolo[3,4-f][1,4]oxazepin-8 (5H)-one] showed an IC50 of 1000 to 10000 nM.

Regarding `Cc1cc(-c2ncc3cc(C(F)(F)F)ccc3n2)ccc1N1CCOc2cn[nH]c2C1=O` [compound 033], the IC50 is under 200 nM.

On to `Cc1cc(-c2ncc3cc(C(F)(F)F)ccc3n2)ccc1N1CCOc2cn(CC#N)nc2C1=O` [compound 035, 2-(7-(2-methyl-4-(6-(trifluoromethyl)quinazolin-2-yl)phenyl)-8-oxo-5,6,7,8-tetrahydro-2H-pyrazolo[3,4-f][1,4]oxazepin-2-yl)acetonitrile], for which the IC50 was under 200 nM.

`Cc1cc(-c2ncc3cc(C(F)(F)F)ccc3n2)ccc1N1CCOc2cnn(CC#N)c2C1=O` [compound 036, 2-(7-(2-methyl-4-(6-(trifluoromethyl)quinazolin-2-yl)phenyl)-8-oxo-5,6,7,8-tetrahydro-1H-pyrazolo[3,4-f][1,4]oxazepin-1-yl)acetonitrile]: the IC50 is under 200 nM.

With `Cc1cc(-c2ncc3cc(C(F)(F)F)ccc3n2)ccc1N1CCOc2cn(CCO)nc2C1=O` [compound 037, 2-(2-hydroxyethyl)-7-(2-methyl-4-(6-(trifluoromethyl)quinazolin-2-yl)phenyl)-6,7-dihydro-2H-pyrazolo[3,4-f][1,4]oxazepin-8 (5H)-one], the IC50 is under 200 nM.

Take `Cc1cc(-c2ncc3nc(C(F)(F)F)ccc3n2)ccc1N1CCOc2cn[nH]c2C1=O` [compound 038, 7-(2-methyl-4-(6-(trifluoromethyl)pyrido[3,2-d]pyrimidin-2-yl)phenyl)-6,7-dihydro-1H-pyrazolo[3,4-f][1,4]oxazepin-8 (5H)-one]: the IC50 was under 200 nM.

`Cc1cc(-c2ncc3nc(C(F)(F)F)ccc3n2)ccc1N1CCOc2nn[nH]c2C1=O` [compound 040, 7-[2-methyl-4-[6-(trifluoromethyl)pyrido[3,2-d]pyrimidin-2-yl]phenyl]-1H,5H,6H,7H,8H-[1,2,3]triazolo[4,5-f][1,4]oxazepin-8-one] had an IC50 of 1000 to 10000 nM.

Compound `Cc1cc(-c2ncc3nc(C(F)(F)F)ccc3n2)ccc1N1CCOc2nn(C)nc2C1=O` [compound 042, 2-methyl-7-(2-methyl-4-(6-(trifluoromethyl)pyrido[3,2-d]pyrimidin-2-yl)phenyl)-6,7-dihydro-2H-[1,2,3]triazolo[4,5-f][1,4]oxazepin-8 (5H)-one] displayed an IC50 of 200 to 500 nM.

For the compound `Cc1cc(-c2ncc3cc(C(F)(F)F)ccc3n2)ccc1N1CCOc2nn(C)nc2C1=O` [compound 043, 2-methyl-7-(2-methyl-4-(6-(trifluoromethyl)quinazolin-2-yl)phenyl)-6,7-dihydro-2H-[1,2,3]triazolo[4,5-f][1,4]oxazepin-8 (5H)-one], the IC50 is 1000 to 10000 nM.

On to `Cc1cc(-c2ncc3cc(C(F)(F)F)ccc3n2)ccc1N1C(=O)c2[nH]ncc2OCC1C` (stereo not shown) [compound 044, 6-methyl-7-(2-methyl-4-(6-(trifluoromethyl)quinazolin-2-yl)phenyl)-6,7-dihydro-1H-pyrazolo[3,4-f][1,4]oxazepin-8 (5H)-one], for which the IC50 was under 200 nM.

For the compound `Cc1cc(-c2ccc3nc(C(F)(F)F)ccc3n2)ccc1N1C(=O)c2[nH]ncc2OCC1C` (stereo not shown) [compound 045, 6-methyl-7-(2-methyl-4-(6-(trifluoromethyl)-1,5-naphthyridin-2-yl)phenyl)-6,7-dihydro-1H-pyrazolo[3,4-f][1,4]oxazepin-8 (5H)-one], the IC50 is under 200 nM.
